Data published in patent US20250361230A1, “LATS Inhibitors and Uses Thereof” (The USA, as Represented by the Secretary, Dept. of Heath …, priority 2022, published 2025).

How the values were obtained:
[1] = target: T1, LATS1 Kinase-NanoLuc fusion in HEK-293 cells (Homo sapiens, UniProt O95835); assay: NanoBRET target engagement assay in transfected HEK-293 cells, LATS1; assay type: cell-based; settings: Table 28, NanoBRET, HEK-293 cells; read-out: LATS1 (Cellular) IC50
T1 construct: host or cells: HEK-293
T1 sequence (O95835 1-1130): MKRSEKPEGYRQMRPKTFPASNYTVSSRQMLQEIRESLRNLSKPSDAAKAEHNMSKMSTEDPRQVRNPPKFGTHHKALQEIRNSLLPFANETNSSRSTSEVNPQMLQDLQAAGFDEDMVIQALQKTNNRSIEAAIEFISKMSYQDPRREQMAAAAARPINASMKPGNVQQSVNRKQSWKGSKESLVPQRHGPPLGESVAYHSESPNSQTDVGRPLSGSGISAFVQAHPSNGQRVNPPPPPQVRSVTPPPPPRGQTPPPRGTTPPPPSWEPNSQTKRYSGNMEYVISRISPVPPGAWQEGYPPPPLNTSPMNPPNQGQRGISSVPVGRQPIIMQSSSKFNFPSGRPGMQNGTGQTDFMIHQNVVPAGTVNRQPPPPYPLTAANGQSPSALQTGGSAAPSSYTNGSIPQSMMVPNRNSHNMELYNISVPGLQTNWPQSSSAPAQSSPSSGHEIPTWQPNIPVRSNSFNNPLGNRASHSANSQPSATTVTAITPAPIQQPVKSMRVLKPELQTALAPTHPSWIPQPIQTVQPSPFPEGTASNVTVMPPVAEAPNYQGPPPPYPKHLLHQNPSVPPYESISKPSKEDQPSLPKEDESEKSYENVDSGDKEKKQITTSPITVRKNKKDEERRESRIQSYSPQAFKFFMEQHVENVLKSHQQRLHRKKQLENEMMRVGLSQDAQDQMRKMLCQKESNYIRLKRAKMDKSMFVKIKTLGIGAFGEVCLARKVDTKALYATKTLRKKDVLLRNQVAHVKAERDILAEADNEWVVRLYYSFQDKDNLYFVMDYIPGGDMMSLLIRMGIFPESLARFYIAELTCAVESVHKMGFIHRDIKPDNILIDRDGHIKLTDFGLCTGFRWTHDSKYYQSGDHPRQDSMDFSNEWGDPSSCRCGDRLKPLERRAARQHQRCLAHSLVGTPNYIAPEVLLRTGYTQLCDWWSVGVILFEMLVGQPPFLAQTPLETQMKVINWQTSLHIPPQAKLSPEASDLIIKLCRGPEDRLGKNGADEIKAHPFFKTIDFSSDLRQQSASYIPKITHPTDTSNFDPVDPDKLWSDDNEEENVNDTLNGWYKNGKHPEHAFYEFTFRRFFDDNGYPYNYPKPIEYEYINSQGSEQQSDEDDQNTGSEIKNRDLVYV
From the text: (§1) The NanoBRET™ assay measures kinase engagement in real time in the context of the intact cell. The assay uses a Kinase-NanoLuc® fusion vector expressing a kinase protein to which a luciferase tag has been added, a cell-permeant fluorescent NanoBRET™ tracer, a NanoLuc® substrate, and an extracellular NanoLuc® inhibitor. Upon expression of the luciferase-tagged kinase, cells will produce a strong BRET signal only in the presence of the NanoBRET™ tracer. The extracellular NanoLuc® inhibitor ensures that the BRET signal observed emanates only from live cells. Because the BRET signal has tight distance constraints, addition of the test compound will decrease the BRET signal if the compound competes with the NanoBRET™ tracer for binding to the kinase domain. Under the appropriate tracer conditions established by the manufacturer, quantitative intracellular affinity and relative potency can then be determined using Mass Action model equations.
(§2) HEK-293 cells were purchased from ATCC. FuGENEHD Transfection Reagent, Kinase-NanoLuc® fusion plasmids, Transfection Carrier DNA, NanoBRET™ Tracers and dilution buffer, NanoBRET™ Nano-Glo Substrate, Extracellular NanoLuc® Inhibitor were obtained from Promega.
(§3) Assays were conducted following Promega assay protocol with some modifications as described further below. HEK-293 Cells were transiently transfected with Kinase-NanoLuc® Fusion Vector DNA by FuGENE HD Transfection Reagent. Test compounds were delivered into 384 well assay plate by Echo 550 (Labcyte Inc, Sunnyvale, CA). Transfected cells were harvested and mixed with NanoBRET™ Tracer Reagent and dispensed into 384 well plates and incubated at 37° C. in 5% CO2 cell culture incubator for 1 hour. The NanoBRET™ Nano-Glo Substrate plus Extracellular NanoLuc® Inhibitor Solution were added into the wells of the assay plate and incubated for 2-3 minutes at room temperature. The donor emission wavelength (460 nm) and acceptor emission wavelength (600 nm) were measured in the EnVision plate reader. The BRET Ratios were calculated. BRET Ratio=[(Acceptor sample÷Donor sample)−(Acceptor no-tracer control÷Donor no-tracer control)]. The IC50 values of compounds were calculated with Prism GraphPad program.
(§4) • 1. Transient Transfection of HEK-293 Cells NanoLuc® Fusion Vector DNA • 1). Cultivate HEK-293 cells (70-80% confluence) appropriately prior to assay. Trypsinize and collect HEK-293 cells. • 2). Prepare lipid: DNA complexes as follows: • a. Prepare a […] solution of DNA in Opti-MEM™ without serum that consists of the following ratios of carrier DNA and DNA encoding NanoLuc® fusion. 9.0 µg/mL of Transfection Carrier DNA, […] of NanoLuc® fusion vector DNA and 1 mL of Opti-MEM™ without phenol red. Mix thoroughly. • b. Add 30 μl of FuGENE HD Transfection Reagent into each milliliter of DNA mixture to form lipid: DNA complex. • c. Mix by inversion 10 times. • d. Incubate at ambient temperature for 20 minutes to allow complexes to form. • 3). In a sterile, conical tube, mix 1 part of lipid: DNA complex with 20 parts of HEK-293 cells in suspension. Mix gently by inversion 5 times. • 4). Dispense cells+lipid: DNA complex into a sterile tissue culture dish and incubate for 22-24 hours. • 2. Addition of Test Compounds (dry plate shooting): Each test compound is delivered from the compound source plate to the wells of 384-well white NBS plate by Echo 550. • 3. Preparation of Cells with NanoBRET™ Tracer Reagent • 1). Remove medium from dish with transfected HEK-293 cells via aspiration, trypsinize and allow cells to dissociate from the dish. • 2). Neutralize trypsin using medium containing serum and centrifuge at 200× g for 5 minutes to pellet the cells. Adjust the cell density to 2×10^5 cells/mL in Opti-MEM™ without phenol red. • 3). Prepare Complete 20× NanoBRET™ Tracer Reagent with Tracer Dilution Buffer. • 4). Dispense one part of Complete 20× NanoBRET™ Tracer Reagent to 20 parts of cells in the tube. Mix gently by inversion 10 times. • 5). […]

[2] = target: T2, AKT Kinase-NanoLuc fusion in HEK-293 cells (Homo sapiens, UniProt P31749); assay: NanoBRET target engagement assay in transfected HEK-293 cells, AKT; assay type: cell-based; settings: Table 28, NanoBRET, HEK-293 cells; read-out: AKT1 (Cellular) IC50
T2 construct: host or cells: HEK-293
From the text: as §1, §2, §3, §4

T2 sequence (P31749 whole entry, the tested form may be a part): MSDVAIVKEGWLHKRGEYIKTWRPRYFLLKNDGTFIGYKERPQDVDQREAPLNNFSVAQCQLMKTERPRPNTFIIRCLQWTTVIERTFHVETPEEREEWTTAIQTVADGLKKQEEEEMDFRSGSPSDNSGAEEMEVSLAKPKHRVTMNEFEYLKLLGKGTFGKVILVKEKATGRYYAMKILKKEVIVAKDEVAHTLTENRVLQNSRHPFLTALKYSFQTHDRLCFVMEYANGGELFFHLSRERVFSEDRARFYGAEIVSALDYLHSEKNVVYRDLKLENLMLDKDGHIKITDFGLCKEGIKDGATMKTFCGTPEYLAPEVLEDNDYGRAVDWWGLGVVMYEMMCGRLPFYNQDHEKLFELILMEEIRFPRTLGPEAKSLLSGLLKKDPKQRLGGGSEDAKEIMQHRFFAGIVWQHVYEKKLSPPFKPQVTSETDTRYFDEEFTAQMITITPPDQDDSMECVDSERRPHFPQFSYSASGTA

Row | Structure (SMILES) | IC50 [1] [µM] | IC50 [2] [µM]
1 | Cc1cc(-c2ccnc3[nH]cc(F)c23)ncc1[C@@]1(O)[C@H](C)CN(C2CCS(=O)(=O)CC2)C[C@@H]1C [Compound 51, 4-((3R,4s,5S)-4-(6-(3-fluoro-1H-pyrrolo[2,3-b]pyridin-4-yl)-4-methylpyridin-3-yl)-4-hydroxy-3,5-dimethylpiperidin-1-yl)tetrahydro-2H-thiopyran 1,1-dioxide] | > 30 | > 30
2 | Cc1cc(-c2ccnc3[nH]cc(F)c23)cc(F)c1[C@@]1(O)[C@H](C)CN(C2CCS(=O)(=O)CC2)C[C@@H]1C [Compound 57, 4-((3R,4s,5S)-4-(2-fluoro-4-(3-fluoro-1H-pyrrolo[2,3-b]pyridin-4-yl)-6-methylphenyl)-4-hydroxy-3,5-dimethylpiperidin-1-yl)tetrahydro-2H-thiopyran 1,1-dioxide] | 0.0369 | 31.9
3 | Cc1cc(-c2ccnc3[nH]cc(F)c23)cc(F)c1[C@@]1(O)[C@H](C)CN(C(=O)CN)C[C@@H]1C [Compound 61, 2-amino-1-((3R,4s,5S)-4-(2-fluoro-4-(3-fluoro-1H-pyrrolo[2,3-b]pyridin-4-yl)-6-methylphenyl)-4-hydroxy-3,5-dimethylpiperidin-1-yl)ethan-1-one] | 0.004 | 3.44
4 | OC1(c2ccc(-c3ccnc4[nH]cc(F)c34)cc2)CCNCC1 [Compound 110, 4-(4-(3-fluoro-1H-pyrrolo[2,3-b]pyridin-4-yl)phenyl)piperidin-4-ol] | 17.7 | 13.3
5 | OC1(c2ccc(-c3ccnc4[nH]ccc34)cc2)CCNCC1 [Compound 111, 4-(4-(1H-pyrrolo[2,3-b]pyridin-4-yl)phenyl)piperidin-4-ol] | > 50 | > 50
6 | O=C([C@H]1CCCN1)N1CCC(O)(c2ccc(-c3ccnc4[nH]cc(F)c34)cc2)CC1 [Compound 142] | 1.84 | 39.8
7 | Fc1c[nH]c2nccc(-c3ccc(C4CCNCC4)cc3)c12 [Compound 169, 3-fluoro-4-(4-(piperidin-4-yl)phenyl)-1H-pyrrolo[2,3-b]pyridine] | 25.8 | 13.3
8 | Fc1c[nH]c2nccc(-c3ccc(C4CCNCC4)c(Cl)c3)c12 [Compound 172, 4-(3-chloro-4-(piperidin-4-yl)phenyl)-3-fluoro-1H-pyrrolo[2,3-b]pyridine] | > 50 | > 50
9 | Clc1c[nH]c2nccc(-c3ccc(C4CCNCC4)cc3)c12 [Compound 173, 3-chloro-4-(4-(piperidin-4-yl)phenyl)-1H-pyrrolo[2,3-b]pyridine] | 1.2 | 73.9
10 | Cc1cc(-c2ccnc3[nH]ccc23)ccc1C1CCNCC1 [Compound 177, 4-(3-methyl-4-(piperidin-4-yl)phenyl)-1H-pyrrolo[2,3-b]pyridine] | 48.3 | 32

Further compounds by falling IC50 [1], results first:

Row | IC50 [1] [µM] | IC50 [2] [µM] | Structure (SMILES)
11 | 0.462 | 31.5 | C[C@@H]1CN(C2CCC2)C[C@H](C)[C@@]1(O)c1c(F)cc(-c2ccnc3[nH]cc(F)c23)cc1F [Compound 46, (3R,4s,5S)-1-cyclobutyl-4-(2,6-difluoro-4-(3-fluoro-1H-pyrrolo[2,3-b]pyridin-4-yl)phenyl)-3,5-dimethylpiperidin-4-ol]
12 | 0.367 | 19.8 | Cc1cc(-c2ccnc3[nH]cc(F)c23)ccc1[C@@]1(O)[C@H](C)CN(C2CCS(=O)(=O)CC2)C[C@@H]1C [Compound 55, 4-((3R,4s, 5S)-4-(4-(3-fluoro-1H-pyrrolo[2,3-b]pyridin-4-yl)-2-methylphenyl)-4-hydroxy-3,5S-dimethylpiperidin-1-yl)tetrahydro-2H-thiopyran 1,1-dioxide]
13 | 0.338 | 32.3 | C[C@@H]1CN(C2CCNCC2)C[C@H](C)[C@@]1(O)c1c(F)cc(-c2ccnc3[nH]cc(F)c23)cc1F [Compound 90, (3R,4s,5S)-4-(2,6-difluoro-4-(3-fluoro-1H-pyrrolo[2,3-b]pyridin-4-yl)phenyl)-3,5-dimethyl-[1,4′-bipiperidin]-4-ol]
14 | 0.205 | > 30 | C[C@@H]1CN(CC(N)=O)C[C@H](C)[C@@]1(O)c1c(F)cc(-c2ccnc3[nH]cc(F)c23)cc1F [Compound 88, 2-((3R,4s,5S)-4-(2,6-difluoro-4-(3-fluoro-1H-pyrrolo[2,3-b]pyridin-4-yl)phenyl)-4-hydroxy-3,5-dimethylpiperidin-1-yl)acetamide]
15 | 0.147 | 18.2 | C[C@@H]1CN(C(=O)CN)C[C@H](C)[C@@]1(O)c1c(F)cc(-c2ccnc3[nH]cc(F)c23)cc1F [Compound 58]
16 | 0.087 | 2.97 | Cc1cc(-c2ccnc3[nH]cc(F)c23)ccc1[C@@]1(O)[C@H](C)CN(C2CCC2)C[C@@H]1C [Compound 54, (3R,4s,5S)-1-cyclobutyl-4-(4-(3-fluoro-1H-pyrrolo[2,3-b]pyridin-4-yl)-2-methylphenyl)-3,5-dimethylpiperidin-4-ol]
17 | 0.0582 | > 30 | Cc1cc(-c2ccnc3[nH]cc(F)c23)cc(F)c1C1(O)CC2(CN(C3COC3)C2)C1 [Compound 139, 6-(2-fluoro-4-(3-fluoro-1H-pyrrolo[2,3-b]pyridin-4-yl)-6-methylphenyl)-2-(oxetan-3-yl)-2-azaspiro[3.3]heptan-6-ol]
18 | 0.0215 | 9.35 | Cc1cc(-c2ccnc3[nH]cc(F)c23)ccc1[C@@]1(O)[C@H](C)CN(C(=O)CN)C[C@@H]1C [Compound 60, 2-amino-1-((3R,4s,5S)-4-(4-(3-fluoro-1H-pyrrolo[2,3-b]pyridin-4-yl)-2-methylphenyl)-4-hydroxy-3,5-dimethylpiperidin-1-yl)ethan-1-one]
